Source: patent publication US20190002935A1, “BACTERIAL CELLS WITH IMPROVED TOLERANCE TO POLYAMINES” (DANMARKS TEKNISKE UNIVERSITET, priority 2016, published 2019)

Key:
E. coli K-12 MG1655 = assay: Growth Profiler growth of K-12 MG1655 in a range of concentrations of other polyamines and amine-containing compounds; details: for screening concentration for which wild-type cells could achieve a growth rate of 0.2-0.3 h^−1: K-12 MG1655, uninhibited growth 0.7-0.9 h^−1 in M9 glucose minimal medium; for tlag (lag time) / μ (growth rate): Growth Profiler
Excerpt: For data obtained with the Growth Profiler, improved image analysis was additionally implemented to obtain the updated growth parameters. In the Tables below, for values labeled in columns with “(1)”, integrated pixel values (which were later converted to OD600 using a calibration curve) were obtained directly from image analysis capabilities in the Growth Profiler software. In the Tables below, for values labeled in columns with “(2)”, a new algorithm was implemented that automatically detected the pixel integration region in each well in each image by locating the darkest pixels in each well. These values were converted to OD600 with a calibration run in the same manner. The new algorithm provided for an improved accuracy in determining the growth rate, since it eliminated a slowly oscillating frequency that was sometimes observed in the original data, potentially related to the practical setup when scanning the plates.
Additionally, each evolved isolate was tested for cross-tolerance toward other polyamines and amine-containing compounds of biotechnological interest. First, K-12 MG1655 was tested in the Growth Profiler screening format for growth in the presence of a range of concentrations of each compound: 1,3-diaminopropane, 1,5-diaminopentane (cadaverine), spermidine, citrulline, ethylenediamine, carnitine, and ornithine. Variable concentrations of these compounds elicited growth inhibition in E. coli K-12 MG1655 (Table 36). […] The compounds citrulline and ornithine are polyamine-containing amino acids. […] Among the only exceptions were PUTR7-1 in citrulline and PUTR5-1 and PUTR6-2 in ornithine.

[1] = system: Escherichia coli K-12 MG1655; assay: Screening for tolerance in wild-type cells (Biolector, varying concentrations of putrescine or HMDA); type: cell-based; details: for mean (1) tlag (lag time) / mean (1) μ (growth rate) / mean (2) tlag (lag time) / mean (2) μ (growth rate): K-12 MG1655; for mean (1) tlag (lag time) / mean (1) μ (growth rate): software version (1); for mean (2) tlag (lag time) / mean (2) μ (growth rate): software version (2)
Method: Escherichia coli K-12 MG1655 was grown overnight in M9 minimal medium+1% glucose and subcultured the following morning to an initial OD600 of 0.05 in M9+1% glucose. Cells were grown to mid-exponential phase (OD600 0.7-1.0) and were back-diluted with fresh medium to an OD600 of 0.7. […] The culture volume in each well was 1.4 mL.
For data obtained with the Biolector microbioreactor system, self-baselined growth series were imported directly into a custom software platform that automatically detects growth phases and exports growth rates and lag times.

[2] = K-12 MG1655, 10 g/L of the compound
[3] = K-12 MG1655, 20 g/L of the compound
[4] = K-12 MG1655, 25 g/L of the compound
[5] = K-12 MG1655, 30 g/L of the compound
[6] = K-12 MG1655, 40 g/L of the compound
[7] = K-12 MG1655, 50 g/L of the compound
[8] = K-12 MG1655, 5 g/L of the compound

NCCCN [1,3-diaminopropane, propane-1,3-diamine]
screening concentration for which wild-type cells could achieve a growth rate of 0.2-0.3 h^−1 (E. coli K-12 MG1655): 35 g/L

N=C(N)NCCCCN [Agmatine, 1-amino-4-guanidinobutane]
tlag (lag time) (E. coli K-12 MG1655; [2]): 5.3 h
μ (growth rate) (E. coli K-12 MG1655; [2]): 0.700 h⁻¹
tlag (lag time) (E. coli K-12 MG1655; [3]): 5.6 h
μ (growth rate) (E. coli K-12 MG1655; [3]): 0.630 h⁻¹
tlag (lag time) (E. coli K-12 MG1655; [4]): 6.1 h
μ (growth rate) (E. coli K-12 MG1655; [4]): 0.648 h⁻¹
tlag (lag time) (E. coli K-12 MG1655; [5]): 6.3 h
μ (growth rate) (E. coli K-12 MG1655; [5]): 0.610 h⁻¹
tlag (lag time) (E. coli K-12 MG1655; [6]): 7.0 h
μ (growth rate) (E. coli K-12 MG1655; [6]): 0.632 h⁻¹
tlag (lag time) (E. coli K-12 MG1655; [7]): 7.9 h
μ (growth rate) (E. coli K-12 MG1655; [7]): 0.523 h⁻¹
concentration up to which the compound was non-toxic (E. coli K-12 MG1655; K-12 MG1655, Growth Profiler): up to 50 g/L

NCCCCCCN [HMDA, hexane-1,6-diamine]
mean (1) tlag (lag time) ([1]; 10 g/L): 1.3 h
mean (1) μ (growth rate) ([1]; 10 g/L): 0.806 h⁻¹
mean (2) tlag (lag time) ([1]; 10 g/L): 0.8 h
mean (2) μ (growth rate) ([1]; 10 g/L): 0.605 h⁻¹
mean (1) tlag (lag time) ([1]; 20 g/L): 1.4 h
mean (1) μ (growth rate) ([1]; 20 g/L): 0.601 h⁻¹
mean (2) tlag (lag time) ([1]; 20 g/L): 0.3 h
mean (2) μ (growth rate) ([1]; 20 g/L): 0.394 h⁻¹
mean (1) tlag (lag time) ([1]; 30 g/L): 1.7 h
mean (1) μ (growth rate) ([1]; 30 g/L): 0.475 h⁻¹
mean (2) tlag (lag time) ([1]; 30 g/L): 0.0 h
mean (2) μ (growth rate) ([1]; 30 g/L): 0.241 h⁻¹
mean (1) tlag (lag time) ([1]; 40 g/L): 2.6 h
mean (1) μ (growth rate) ([1]; 40 g/L): 0.216 h⁻¹
mean (2) tlag (lag time) ([1]; 40 g/L): 2.3 h
mean (2) μ (growth rate) ([1]; 40 g/L): 0.136 h⁻¹
mean (1) μ (growth rate) ([1]; 50 g/L): 0.000 h⁻¹
mean (2) μ (growth rate) ([1]; 50 g/L): 0.000 h⁻¹
mean (1) μ (growth rate) ([1]; 75 g/L): 0.000 h⁻¹
mean (2) μ (growth rate) ([1]; 75 g/L): 0.000 h⁻¹
mean (1) μ (growth rate) ([1]; 100 g/L): 0.000 h⁻¹
mean (2) μ (growth rate) ([1]; 100 g/L): 0.000 h⁻¹
concentration at which zero/no growth was detected ([1]; K-12 MG1655, M9+1% glucose, Biolector): 50 g/L
maximum measured concentration at which K-12 MG1655 can grow ([1]; M9+1% glucose, Biolector): 40 g/L

NCCCCCN [cadaverine, pentane-1,5-diamine]
screening concentration for which wild-type cells could achieve a growth rate of 0.2-0.3 h^−1 (E. coli K-12 MG1655): 35 g/L

C[N+](C)(C)CC(O)CC(=O)[O-] (centres unmarked) [carnitine]
tlag (lag time) (E. coli K-12 MG1655; [8]): 6.6 h
μ (growth rate) (E. coli K-12 MG1655; [8]): 0.786 h⁻¹
tlag (lag time) (E. coli K-12 MG1655; [2]): 7.5 h
μ (growth rate) (E. coli K-12 MG1655; [2]): 0.545 h⁻¹
μ (growth rate) (E. coli K-12 MG1655; [3]): 0.000 h⁻¹
